Assay results: paper PMC9781268, “2-Arylpropionic Acid Pyrazolamides as Cannabinoid CB2 Receptor Inverse Agonists Endowed with Anti-Inflammatory Properties” (Pharmaceuticals, 2022)
In brackets after ≈: the same amount, converted by molar mass.

Assays:
[1] = Parallel artificial membrane permeability assay, gastrointestinal (PAMPA-GI / PAMPA-GTI); conditions: for Pe Exp / Classification / Fa: Table S1, PAMPA-GTI; for Papp at 8 h, 0.5 mM: PAMPA; for Fa / PAMPA-GI Fa Exp: absorbed fraction; for PAMPA-GI Fa Exp: soybean L-α-phosphatidylcholine membrane
Description: A 10 mM solution of each compound (tests and controls) was prepared in DMSO. Then, in a 5 mL glass flask, 250 µL of the freshly prepared solution was homogenized with 4750 µL of PBS at pH 6.6 to a concentration of 10 mM. The solution was then filtered in a 0.45 µm PVDF filter and set aside. Then, 180 µL of a solution of phosphate-bufffered saline (PBS, pH 7.4):DMSO (95:5) was added to the wells of the receptor plate, and 5 µL of the soy L-α-phosphatidylcholine lipid solution (20 mg/mL in dodecane) was added to the wells of the donor plate. After 5 min, the donor plate received 180 µL of the reserved solution containing each compound. […] After this period, the donor plate was removed, and the contents of the recipient plate were transferred to a UV reading plate and read (SpectraMax 5, Molecular Devices) at the maximum wavelengths for each compound. The blank was prepared with 180 µL of PBS solution (pH 7.4):DMSO (95:5). The experiments were carried out in triplicate with two different analyses (n = 2) [37]. The optical density values obtained from the readings at each selected wavelength for each of the compounds were analyzed by comparison with the values of the controls. These values were used to determine the absorbed fraction (Fa %) using the JMP® program version 10.0.

[2] = Parallel artificial membrane permeability assay, blood-brain barrier (PAMPA-BBB); conditions: for PAMPA-BBB Score: porcine brain lipid membrane
Description: In a 5 mL glass vial, 1 mg of each compound (test or control) was dissolved in 1 mL of ethanol. Then, 500 μL of ethanol and 3.5 mL of PBS at pH 7.4 were added to this solution. […] After 5 min, the donor plate received 180 μL of each compound solution in triplicate. […] The experiments were performed in triplicate with two different analyses (n = 2).

[3] = design: method as in ZHU et al., 2002; conditions: Table S1, PAMPA-GTI, drugs used as standard; ref ZHU et al., 2002; cited from earlier work
[4] = Table S2, PAMPA-BBB, drugs used as standard; cited from earlier work
CB2 receptor = target: CB2 receptor; design: method as in PMID 22172309; conditions: cited from earlier work; for Ki: CB2 receptor
CB1 receptors = tested on: CB1 receptors; design: method as in PMID 22172309; conditions: cited from earlier work
[5] = Aqueous solubility (thermodynamic, UV spectroscopy); assay type: physicochemical; conditions: aqueous buffer, thermodynamic from solid, phosphate buffer pH 7.4, 37 °C
Description: The test was performed based on the absorbance obtained by ultraviolet spectroscopy. The scanning wavelength was determined according to the highest absorbance observed for each compound. Saturated aqueous solution of the analyzed compounds were stirred for 4 h at 37 °C, and then filtered through a 0.45 µm PVDF filter and transferred to a quartz cuvette (10 mm optical path) for reading. Solubility was determined by linear regression based on the equation of the line.

[6] = Distribution coefficient at pH 7.4 (shake-flask, octanol/phosphate buffer); assay type: physicochemical; conditions: 1-octanol/buffer pH 7.4; n-octanol/buffer partitioning at pH 7.4, UV method; read-out: Log D7.4
Description: The assay was performed based on the shake-flask method and the absorbance readings by ultraviolet spectroscopy at maximum absorbance wavelength. To a Falcon tube with a capacity of 15 mL, 5 mL of buffer solution at pH 7.4 and 5 mL of 1-octanol were added. Then, the tested compounds were added at defined concentrations of approximately 10–15 µM, and the mixtures were homogenized via vigorous manual shaking. Next, the Falcon tubes were stirred for 4 h at 37 °C, and the experiment was carried out in triplicate for each compound. Subsequently, each sample was placed in a separatory funnel, and the collected aqueous phase was filtered through a 0.45 µm PVDF filter and transferred to a quartz cuvette (10 mm optical path) for UV/Vis reading. The distribution coefficient of each compound at pH 7.4 was determined by linear regression using the straight-line equation [33].

plasma carboxylesterases = assay: Plasma stability against enzymatic hydrolysis; assay type: in vitro ADME, Wistar rats; conditions: rat plasma, determined after 240 min
Description: For the evaluation of plasma stability against plasma carboxylesterases, a pool of plasma male Wistar rats weighing 300–360 g kept in the vivarium of the Laboratory of Biochemical and Molecular Pharmacology-UFRJ was used. Blood was collected with heparin and kept on ice. Then, the samples were centrifuged at 2000 rpm for 15 min at 20 °C, with subsequent removal of the plasma. The plasma was then diluted 80% (v/v) with phosphate buffer (PBS; pH = 7.4) at 37 °C. The experiments performed in this work were approved by the Ethics Committee on the Use of Animals in Scientific Experiments of the Health Sciences Center of the Federal University of Rio de Janeiro (Number 028/15). The biological matrix was incubated at 37 °C under agitation for 30, 60, 120, and 240 min. The degree of degradation was evaluated by HPLC-PDA with methyl 1,1′bisphenyl-4-carboxylate as an internal standard (PI), using an isocratic mobile phase of 70%:30% acetonitrile:water (0–15 min), an injection volume of 20 μL, a flow rate of 1 mL/min, and detection at 254 nm.

[7] = tested on: formalin-induced licking behavior in mice; assay: Formalin-induced licking behavior; assay type: in vivo, Swiss Webster mice; conditions: morphine 2.5 mg/kg i.p., ASA 200 mg/kg p.o., LASSBio-2265 1, 3 and 10 mg/kg p.o., compared to vehicle
Description: This assay was performed as described by Hunskaar et al. and adapted by Gomes et al.. This model was characterized by a response that occurred in two phases. The first phase (acute neurogenic pain) occurred during the first 5 min after the intraplantar injection of formalin, and the second phase (inflammatory pain) occurred 15 to 30 min post-injection. Mice were pretreated with oral doses of LASSBio-2265 (11, at 1, 3 or 10 mg/kg, p.o.), morphine (2.5 mg/kg, i.p.), acetylsalicylic acid (ASA, 200 mg/kg, p.o.), or the vehicle (same amount of DMSO used to solubilize the substances + NaCl 0.9%) 60 min before the administration of formalin. […] Then, mice (n = 7 per group) received 20 μL of formalin (2.5% v/v) in the dorsal surface of the left hind paw. The time that the mice spent licking the injected paw was immediately recorded. […] The final volume administered to mice was 0.1 mL.

[8] = PAMPA, 2.75 h, 0.2 mg/mL, pH 7.4

Nc1nc2c(ncn2COCCO)c(=O)[nH]1 [Acyclovir, reference compound]
Pe Exp [1]: 0,08 10-6 cm/s

CC(C)NCC(O)COc1ccc(CC(N)=O)cc1 (centres unmarked) [Atenolol, reference compound]
Pe experimental [2, 8]: 0,46 10-6 cm s-1
Classification ([2]; Table S2, PAMPA-BBB): CNS -
Pe Lit [3]: 0,1 10-6cm/s
Pe literatura [4]: 0,8 10-6 cm s-1

Cn1c(=O)c2c(ncn2C)n(C)c1=O [Caffeine, reference compound]
Pe experimental [2, 8]: 0,81 10-6 cm s-1
Classification ([2]; Table S2, PAMPA-BBB): CNS -
Pe literatura [4]: 1,3 10-6 cm s-1

CCCCC/C=C\C/C=C\C/C=C\C/C=C\CCCC(=O)Nc1c(C)n(C)n(-c2ccccc2)c1=O [Compound 5]
Ki (CB2 receptor): 5.4 µM
Affinity for CB2 receptors (CB2 receptor): micromolar affinity
Affinity for CB1 receptors (CB1 receptors): micromolar affinity

CCCCC/C=C\C/C=C\C/C=C\C/C=C\CCCC(=O)N(C)c1c(C)n(C)n(-c2ccccc2)c1=O [Compound 6]
Ki (CB2 receptor): 3 µM
Affinity for CB2 receptors (CB2 receptor): micromolar affinity
Affinity for CB1 receptors (CB1 receptors): micromolar affinity

Cc1c(NC(=O)C(C)c2ccc(CC(C)C)cc2)c(=O)n(-c2ccccc2)n1C (centres unmarked) [Compound 7, N-(1,5-dimethyl-3-oxo-2-phenyl-2,3-dihydro-1H-pyrazol-4-yl)-2-(4-isobutylphenyl) propanamide]
solubility at 4 h [5]: 12.1 µM (≈ 4.75 µg/mL)
logD [6]: 2.47
Papp at 2.75 h, 0.2 mg/mL ([2]; PAMPA, pH 7.4): 12.8 ×10⁻⁶ cm/s
Classification ([2]; Table S2, PAMPA-BBB): CNS +
Pe experimental ([2]; Table S2, PAMPA-BBB): 12,77 10-6 cm s-1
PAMPA-BBB Score [2]: CNS+ (CNS+ (high predicted BBB permeability) Pe > 4.0 × 10^−6 cm/s)
Plasma Metabolization Rate (plasma carboxylesterases): 56.13%
melting point: 151.2 °C
Papp at 8 h, 0.5 mM [1]: 15.4 ×10⁻⁶ cm/s
Classification [1]: HIGH (high intestinal permeability: >70%)
Pe Exp [1]: 15,38 10-6 cm/s
Fa [1]: 99,71%
PAMPA-GI Fa Exp [1]: 99.71%

Cc1c(NC(=O)C(C)c2ccc(-c3ccccc3)c(F)c2)c(=O)n(-c2ccccc2)n1C (centres unmarked) [Compound 8, N-(1,5-dimethyl-3-oxo-2-phenyl-2,3-dihydro-1H-pyrazol-4-yl)-2-(2-fluoro-[1,1^′-biphenyl]-4-ylil) propanamide]
solubility at 4 h [5]: 59.1 µM (≈ 25.4 µg/mL)
logD [6]: 1.94
Papp at 2.75 h, 0.2 mg/mL ([2]; PAMPA, pH 7.4): 17.2 ×10⁻⁶ cm/s
Classification ([2]; Table S2, PAMPA-BBB): CNS +
Pe experimental ([2]; Table S2, PAMPA-BBB): 17,25 10-6 cm s-1
PAMPA-BBB Score [2]: CNS+ (CNS+ (high predicted BBB permeability) Pe > 4.0 × 10^−6 cm/s)
Plasma Metabolization Rate (plasma carboxylesterases): 18.66%
melting point: 214.8 °C
Papp at 8 h, 0.5 mM [1]: 9.69 ×10⁻⁶ cm/s
Classification [1]: HIGH (high intestinal permeability: >70%)
Pe Exp [1]: 9,69 10-6 cm/s
Fa [1]: 97,49%
PAMPA-GI Fa Exp [1]: 97.49%

Cc1c(NC(=O)Cc2ccc(-c3ccccc3)cc2)c(=O)n(-c2ccccc2)n1C [Compound 9, 2-([1,1’-biphenyl]-4-yl)-N-(1,5-dimethyl-3-oxo-2-phenyl-2,3-dihydro-1H-pyrazol-4-yl) acetamide]
solubility at 4 h [5]: 21.3 µM (≈ 8.47 µg/mL)
logD [6]: 2.14
Papp at 2.75 h, 0.2 mg/mL ([2]; PAMPA, pH 7.4): 4.51 ×10⁻⁶ cm/s
Classification ([2]; Table S2, PAMPA-BBB): CNS +
Pe experimental ([2]; Table S2, PAMPA-BBB): 4,51 10-6 cm s-1
PAMPA-BBB Score [2]: CNS+ (CNS+ (high predicted BBB permeability) Pe > 4.0 × 10^−6 cm/s)
Plasma Metabolization Rate (plasma carboxylesterases): 24.56%
melting point: 221.8 °C
Papp at 8 h, 0.5 mM [1]: 11 ×10⁻⁶ cm/s
Classification [1]: HIGH (high intestinal permeability: >70%)
Pe Exp [1]: 11,00 10-6 cm/s
Fa [1]: 98,47%
PAMPA-GI Fa Exp [1]: 98.47%

Cc1c(N(C)C(=O)C(C)c2ccc(CC(C)C)cc2)c(=O)n(-c2ccccc2)n1C (centres unmarked) [Compound 10, N-(1,5-dimethyl-3-oxo-2-phenyl-2,3-dihydro-1H-pyrazol-4-yl)-2-(4-isobutylphenyl)-N-methylpropanamide]
solubility at 4 h [5]: 47.7 µM (≈ 19.3 µg/mL)
logD [6]: 2.43
Papp at 2.75 h, 0.2 mg/mL ([2]; PAMPA, pH 7.4): 12.7 ×10⁻⁶ cm/s
Classification ([2]; Table S2, PAMPA-BBB): CNS +
Pe experimental ([2]; Table S2, PAMPA-BBB): 12,68 10-6 cm s-1
PAMPA-BBB Score [2]: CNS+ (CNS+ (high predicted BBB permeability) Pe > 4.0 × 10^−6 cm/s)
Plasma Metabolization Rate (plasma carboxylesterases): 32.50%
Papp at 8 h, 0.5 mM [1]: 2.51 ×10⁻⁶ cm/s
Classification [1]: HIGH (high intestinal permeability: >70%)
Pe Exp [1]: 9,15 10-6 cm/s
Fa [1]: 96,91%

O=c1ccc2ccccc2o1 [Coumarin, reference compound]
Classification [1]: HIGH (high intestinal permeability: >70%)
Pe Exp [1]: 22,65 10-6 cm/s
Fa [1]: 99,98%

CN1C(=O)CN=C(c2ccccc2)c2cc(Cl)ccc21 [Diazepam, reference compound]
Classification ([2]; Table S2, PAMPA-BBB): CNS +
Pe experimental ([2]; Table S2, PAMPA-BBB): 14,30 10-6 cm s-1
Pe literatura [4]: 16 10-6 cm s-1

O=C(O)Cc1ccccc1Nc1c(Cl)cccc1Cl [Diclofenac, reference compound]
Pe Lit [3]: 12,5 10-6cm/s

CCn1cc(C(=O)O)c(=O)c2cc(F)c(N3CCNCC3)nc21 [Enoxacin, reference compound]
Pe experimental [2, 8]: 0,53 10-6 cm s-1
Classification ([2]; Table S2, PAMPA-BBB): CNS -
Pe literatura [4]: 0,9 10-6 cm s-1

CC(=O)N1CCN(c2ccc(OCC3COC(Cn4ccnc4)(c4ccc(Cl)cc4Cl)O3)cc2)CC1 (centres unmarked) [Ketoconazole, reference compound]
Pe Lit [3]: 3,3 10-6cm/s
Classification [1]: HIGH (high intestinal permeability: >70%)
Pe Exp [1]: 4,93 10-6 cm/s
Fa [1]: 84,68%

C[C@]12C=CC(=O)C=C1CC[C@@H]1[C@@H]2C(=O)C[C@@]2(C)[C@H]1CC[C@]2(O)C(=O)CO [Prednisone, reference compound]
Pe Exp [1]: 3,09 10-6 cm/s

CNC(=C[N+](=O)[O-])NCCSCc1ccc(CN(C)C)o1 [Ranitidine, reference compound]
Classification [1]: LOW (low intestinal permeability: <29%)
Pe Exp [1]: 0,38 10-6 cm/s
Fa [1]: 13,48%

O=C(O)c1cc(/N=N/c2ccc(S(=O)(=O)Nc3ccccn3)cc2)ccc1O [Sulfassalazine]
Pe Lit [3]: 0,3 10-6cm/s

CC(=O)Oc1ccccc1C(=O)O [acetylsalicylic acid, reference compound]
Analgesia in the first phase of the formalin test [7]: only morphine (2.5 mg/kg) promoted significant analgesia
Pe Lit [3]: 3,8 10-6cm/s
Classification [1]: AVERAGE (medium intestinal permeability: 30–69%)
Pe Exp [1]: 1,69 10-6 cm/s
Fa [1]: 47,36%

CN1CC[C@]23c4c5ccc(O)c4O[C@H]2[C@@H](O)C=C[C@H]3[C@H]1C5 [morphine, reference compound]
Analgesia in the first phase of the formalin test [7]: promoted significant analgesia
